Data set [1] has as its target T1, cloned rat steroid 5α-reductase (Rattus norvegicus, UniProt P24008).
T1 sequence (P24008 5-259): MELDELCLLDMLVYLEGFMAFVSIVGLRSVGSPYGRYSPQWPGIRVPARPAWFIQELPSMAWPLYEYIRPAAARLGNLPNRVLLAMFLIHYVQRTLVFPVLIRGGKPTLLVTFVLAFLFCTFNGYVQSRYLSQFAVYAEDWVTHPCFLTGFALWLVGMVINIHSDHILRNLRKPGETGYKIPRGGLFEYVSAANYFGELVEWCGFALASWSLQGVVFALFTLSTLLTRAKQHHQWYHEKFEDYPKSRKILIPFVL
Kind of data set: substrate specificity / inhibition of cloned rat liver steroid 5α-reductase expressed in Xenopus oocytes. The conditions noted are these: for substrate for the cloned enzyme: 5 μM 14C-labeled steroid.

Data set [2] concerns the target T2, rat steroid 5α-reductase (Rattus norvegicus, UniProt P24008).
T2 sequence (P24008 5-259): T1 sequence (P24008 5-259)
The data set can be described thus: steroid 5α-reductase activity/inhibition in vitro, homogenates of COS cells expressing rat cDNA (Table III). The conditions noted are these: rat enzyme. From the text:
(§1) Expression Vector Construction. A rat steroid 5α-reductase cDNA corresponding to nucleotides 1-1962 (see Example 1) was ligated into the pCMV4 expression vector (Andersson et al., 1989b). A human cDNA corresponding to nucleotides 1 to 842 of FIG. 7 was initially ligated into pCMV4. […] After amplification, the product was ligated into pCMV4.
(§2) Expression of Steroid 5α-Reductase 1 cDNAs in COS Cells. Simian COS-M6 cells were transfected as described by Andersson et al. (1989b). The assay of steroid 5α-reductase activity in intact cells was carried out as described in Example 1 except that [^14 C]-labeled steroid dissolved in ethanol were added to the transfected cell medium and subsequent organic extractions were carried out with dichloromethane. TLC and liquid scintillation counting were performed as described in Example 1.
(§3) To assay steroid 5α-reductase activity in vitro, cells were harvested 48 hours after transfection, washed once with phosphate buffered saline and either frozen in liquid N2 or homogenized directly with a Polytron in 10 mM potassium phosphate (pH 7.4), 150 mM KCl and 1 mM EDTA, at a protein concentration of 2 mg/ml. A typical assay contained 10 to 50 μg of cell homogenate protein in 0.5 ml of 0.1M potassium phosphate buffer (pH 6.6, rat enzyme; pH 7.0, human enzyme). Steroids were added in 5 μl ethanol, and the reaction was initiated by the addition of NADPH to a final concentration of 2-5 mM. Incubations were carried out for 10 min at 37° C. and terminated by the addition of 5 ml dichloromethane. Organic execrations and thin-layer chromatography analysis were as described above.
(§4) The apparent Km and Vmax values in this system were determined in vitro with five different steroid substrates (Table III).
(§5) The apparent Ki values were then determined for 4-aza-steroid (4-MA and MK-906) inhibition of 5α-reductases expressed in COS cells. […] The data obtained were analyzed using Dixon plots to determine the type of inhibition and the apparent Ki value (Dixon et al., 1979).
(§6) COS call transfaction, cell homogonate preparation, and enzyme assay were
(§7) carried out as described in Materials and Methods. Each Km value
(§8) represents the average of at least two experiments carried out on
(§9) different days using cell lysates prepared from different transfections.

The target in data set [3] is T3, human steroid 5α-reductase 1 (Homo sapiens, UniProt P18405).
T3 sequence (P18405 1-259): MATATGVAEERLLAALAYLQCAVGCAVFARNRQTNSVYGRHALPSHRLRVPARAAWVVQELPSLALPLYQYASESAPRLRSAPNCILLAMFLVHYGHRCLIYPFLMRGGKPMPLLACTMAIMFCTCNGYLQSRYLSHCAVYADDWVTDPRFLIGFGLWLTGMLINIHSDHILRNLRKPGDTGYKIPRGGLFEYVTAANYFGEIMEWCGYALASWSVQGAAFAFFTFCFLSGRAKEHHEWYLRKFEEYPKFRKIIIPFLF
Kind of data set: steroid 5α-reductase activity/inhibition in vitro, homogenates of COS cells expressing human steroid 5α-reductase 1 cDNA (Table III). The conditions noted are these: human enzyme.
Excerpt: as §1, §2, §3, §4, §5, §6, §7, §8, §9

Substrate in data set [4]: CC(=O)[C@H]1CC[C@H]2[C@@H]3CCC4=CC(=O)CC[C@]4(C)[C@H]3CC[C@]12C
The data set can be described thus: cells, lysate or membranes named. The conditions noted are these: 0.6 to 20 μM substrate, Lineweaver-Burk, 37.0 °C.

Substrate in data set [5]: C[C@]12CCC(=O)C=C1CC[C@@H]1[C@@H]2CC[C@]2(C)C(=O)CC[C@@H]12
The data set can be described thus: cells, lysate or membranes named. The conditions noted are these: 0.6 to 20 μM substrate, Lineweaver-Burk, 37.0 °C.

Substrate in data set [6]: C[C@]12CC[C@H]3[C@@H](CCC4=CC(=O)CC[C@@]43C)[C@@H]1CC[C@@H]2O
Kind of data set: cells, lysate or membranes named. Conditions: 0.6 to 20 μM substrate, Lineweaver-Burk, 37.0 °C.

[7] abbreviates: other: human enzyme in COS cell homogenate.
[8] abbreviates: other: rat enzyme in COS cell homogenate.

Take `C[C@]12CCC(=O)C=C1CC[C@@H]1[C@@H]2CC[C@]2(C)C(=O)CC[C@@H]12` [Androstenedione, androstenedione]: the “substrate for the cloned enzyme” value in data set [1] is “substrates for the cloned enzyme”.

Regarding `C[C@]12C[C@H](O)[C@H]3[C@@H](CCC4=CC(=O)CC[C@@]43C)[C@@H]1CC[C@@H]2C(=O)CO` [Corticosterone, corticosterone], the “activity towards 11β-substituted steroids” value in data set [2] and in data set [3] was “very low activities” throughout.

In the case of `C[C@]12CCC(=O)C=C1CC[C@@H]1[C@@H]2[C@@H](O)C[C@@]2(C)[C@H]1CC[C@]2(O)C(=O)CO` [Cortisol, cortisol], the “activity towards 11β-substituted steroids” value in data set [2] and in data set [3] was “very low activities” each time.

With `CC(=O)[C@H]1CC[C@H]2[C@@H]3CCC4=CC(=O)CC[C@]4(C)[C@H]3CC[C@]12C` [Progesterone, progesterone], the “substrate for the cloned enzyme” value in data set [1] is “substrates for the cloned enzyme”.

On to `C[C@]12CC[C@H]3[C@@H](CCC4=CC(=O)CC[C@@]43C)[C@@H]1CC[C@@H]2O` [Testosterone, testosterone], for which, in data set [1] (intact rat steroid 5α-reductase RNA in oocytes (FIG. 6A)), the “reduction of the testosterone substrate” value amounted to 67%.

B1: human steroid 5α-reductase 1 (Homo sapiens) (protein)
chain: T3 sequence (P18405 1-259)
Turning to B1, the Km was 0.8 µM in data set [4] (setting [7]), 1.7 µM in data set [5] (setting [7]) and 3.6 µM in data set [6] (setting [7]).

B2: rat steroid 5α-reductase (Rattus norvegicus) (protein)
chain: T1 sequence (P24008 5-259)
With B2, the results for the Km in data set [4] (setting [8]), in data set [5] (setting [8]) and in data set [6] (setting [8]) were 0.5 µM, 2.8 µM and 2.5 µM, respectively.

The Km is the substrate concentration at which the rate is half of its maximum.

The values above are taken from patent publication US5679521A, “Steroid 5A-reductases” (priority 1995, dated 1997).
